Results as given in article PMC10216335, “Voltage-Gated Sodium Channel NaV1.7 Inhibitors with Potent Anticancer Activities in Medullary Thyroid Cancer Cells” (Cancers, 2023).
Counter-ions that a name gives are not always drawn.

Molecular target: T1, NaV1.7 (Rattus norvegicus, UniProt O08562)
T1 construct: gene Scn9a; rat cDNA NaV1.7 (GenBank No. U79568), transiently expressed in HEK-293 cells
Assay: whole-cell patch-clamp, INa block in transfected HEK-293 cells
Type: cell-based

T1 sequence (O08562 whole entry): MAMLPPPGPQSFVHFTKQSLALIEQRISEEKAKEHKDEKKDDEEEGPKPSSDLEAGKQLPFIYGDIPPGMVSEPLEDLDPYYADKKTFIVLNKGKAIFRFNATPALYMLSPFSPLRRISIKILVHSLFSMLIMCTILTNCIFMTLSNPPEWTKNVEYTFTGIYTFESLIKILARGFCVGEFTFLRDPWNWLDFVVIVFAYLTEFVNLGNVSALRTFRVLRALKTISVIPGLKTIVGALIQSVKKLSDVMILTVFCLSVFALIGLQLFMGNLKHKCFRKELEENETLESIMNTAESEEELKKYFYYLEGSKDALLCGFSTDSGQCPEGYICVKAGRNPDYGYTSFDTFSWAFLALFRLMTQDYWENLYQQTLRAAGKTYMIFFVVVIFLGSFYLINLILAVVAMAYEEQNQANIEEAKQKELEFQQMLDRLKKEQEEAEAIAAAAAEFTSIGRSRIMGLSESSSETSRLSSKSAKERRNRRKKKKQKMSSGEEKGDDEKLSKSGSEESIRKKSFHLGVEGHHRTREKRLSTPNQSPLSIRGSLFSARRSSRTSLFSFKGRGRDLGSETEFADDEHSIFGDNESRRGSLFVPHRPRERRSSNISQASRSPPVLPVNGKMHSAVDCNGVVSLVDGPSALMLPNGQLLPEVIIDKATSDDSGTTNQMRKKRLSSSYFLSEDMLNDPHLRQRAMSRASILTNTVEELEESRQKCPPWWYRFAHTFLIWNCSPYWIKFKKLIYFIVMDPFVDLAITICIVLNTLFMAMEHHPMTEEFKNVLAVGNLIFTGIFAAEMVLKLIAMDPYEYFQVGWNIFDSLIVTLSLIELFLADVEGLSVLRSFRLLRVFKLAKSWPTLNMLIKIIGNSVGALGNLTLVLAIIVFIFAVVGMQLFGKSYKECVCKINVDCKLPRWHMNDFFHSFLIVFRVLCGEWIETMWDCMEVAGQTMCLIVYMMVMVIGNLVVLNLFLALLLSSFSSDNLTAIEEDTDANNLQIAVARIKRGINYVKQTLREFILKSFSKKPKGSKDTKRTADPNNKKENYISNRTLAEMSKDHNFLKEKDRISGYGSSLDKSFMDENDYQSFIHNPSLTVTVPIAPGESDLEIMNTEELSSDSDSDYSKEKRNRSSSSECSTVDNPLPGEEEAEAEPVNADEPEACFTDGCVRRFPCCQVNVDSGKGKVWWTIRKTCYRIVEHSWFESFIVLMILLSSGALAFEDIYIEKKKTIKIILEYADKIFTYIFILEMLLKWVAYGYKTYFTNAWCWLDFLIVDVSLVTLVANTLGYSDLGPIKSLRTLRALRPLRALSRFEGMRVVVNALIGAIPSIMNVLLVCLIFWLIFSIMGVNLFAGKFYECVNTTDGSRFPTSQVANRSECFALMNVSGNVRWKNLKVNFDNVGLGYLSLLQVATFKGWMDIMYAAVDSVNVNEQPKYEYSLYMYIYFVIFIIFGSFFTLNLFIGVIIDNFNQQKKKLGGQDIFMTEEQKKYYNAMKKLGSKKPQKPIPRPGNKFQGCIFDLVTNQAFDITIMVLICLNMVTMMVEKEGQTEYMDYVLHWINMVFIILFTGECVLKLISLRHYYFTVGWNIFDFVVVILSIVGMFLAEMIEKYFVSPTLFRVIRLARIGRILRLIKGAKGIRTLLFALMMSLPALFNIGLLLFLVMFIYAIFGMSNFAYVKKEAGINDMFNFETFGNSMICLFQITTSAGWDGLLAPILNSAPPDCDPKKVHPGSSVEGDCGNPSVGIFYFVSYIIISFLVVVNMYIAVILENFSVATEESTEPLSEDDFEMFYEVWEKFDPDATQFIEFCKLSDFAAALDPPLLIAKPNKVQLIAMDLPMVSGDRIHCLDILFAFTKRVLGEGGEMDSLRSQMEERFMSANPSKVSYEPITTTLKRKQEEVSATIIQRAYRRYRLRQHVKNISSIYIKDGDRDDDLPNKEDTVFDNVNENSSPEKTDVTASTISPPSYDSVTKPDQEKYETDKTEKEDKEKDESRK

- IC50: 3.6 µM
Structure (SMILES): c1ccc(C(CCCNCCCN2CCCCC2)c2ccccc2)cc1 [SV188, 4,4-Diphenylbutyl [3-(piperidin-1-yl)propyl]amine Hydrochloride]
